# “Also recorded” adds a separate entry of the source.
# Tests used:
# [1] = test system: rats; assay: toxicant exposure of rats; modified proteins isolated from serum (immunoaffinity, 2D gel electrophoresis, LC/MS); format: in vivo; conditions: for modified proteins found in serum of treated animals, not found in the control group: rat serum, CCl4 0.1 and 1.0 mL/kg or ozone 0.8 and 2.0 ppm, specimens at 0-24 hours, anti-nitrotyrosine, chlorotyrosine, methionine sulfoxide resins, LC/MS
# Description: Experimental groups consisted of three experimental and two control animals at each dose and specimens were collected at zero, one, two, four, eight, sixteen and twenty-four hours following ozone administration. In another experimental series, CCl4 was administered at a level of 0.1 and 1.0 mL/kg to rats to induce liver damage, and specimens were collected at time points as described above. […] Therefore, these high abundance proteins are preferably eliminated from serum samples prior to further processing.
# In this experimental series, the specimens were purified by passing them over affinity resins containing antibodies against whole rat serum proteins and collecting the eluate. This purification methodology was effective in removing a significant amount of the high abundant serum proteins, which typically have a molecular weight in the range of 49-80 kiloDalton. […] Therefore, it was determined that concentration of the sample could be carried out very effectively by a process of molecular weight sieving which retained low molecular weight proteins (typically 50 kiloDalton and below) and excluded high molecular weight proteins. Such sieving was effectively accomplished utilizing a Superdex 75 column with a sample loading volume of 10% of the bed volume. Processes of this type have the advantage of being cheaper and faster than affirity resin based processes.
# Once the concentration of high abundance serum proteins was decreased, the tissue proteins were purified from serum by immunoaffinity resins using antibodies to nitrotyrosine, chlorothyosine and methionine sulfoxide. […] Samples of interest were excised from the gel and those with sufficient concentration were analyzed by LC/MS.
# [2] = test system: rats; conditions: in rats; cited from earlier work
Structure (SMILES),"modified proteins found in serum of treated animals, not found in the control group [1]",organ toxicity [2],organ damage ([1]; rats breathing ozone at 0.8 and 2.0 ppm)
"ClC(Cl)(Cl)Cl [CCl4, carbon tetrachloride]",three out of the seven peptides from the CCl4 group were associated with mitochondria; also recorded: peroxiredoxin,known hepatotoxicant,–
"O=C1CCC(=O)N1c1cc(Cl)cc(Cl)c1 [NDPS, N-(3,5-dichlorophenyl) succinimide]",–,toxic to the kidney,–
O=[O+][O-] [ozone],four proteins of interest were found,toxic to the lungs,Lung damage was produced
